Measured values from patent publication US11718604B2, “4-amino-6-(1,3-benzodioxole)picolinates and their use as herbicides” (Dow AgroSciences LLC, priority 2018, dated 2023).

Experiments:
Format in all cases: in vivo
[1] = test system: ABUTH: velvetleaf (Abutilon theophrasti); test: Post-emergent herbicidal test, velvetleaf; settings: post-emergence, 336 h, 14 days after application, read-out: Visual Growth Reduction (%) 14 Days After Application ABUTH
Protocol: (§1) Post-Emergent Test: Seeds or nutlets of the desired test plant species were planted in Sun Gro Metro-Mix® 360 planting mixture, which typically has a pH of 6.0 to 6.8 and an organic matter content of about 30 percent, in plastic pots with a surface area of 64 square centimeters (cm^2). When required to ensure good germination and healthy plants, a fungicide treatment and/or other chemical or physical treatment was applied. The plants were grown for 7-21 d in a greenhouse with an approximate 15 h photoperiod which was maintained at about 23-29° C. during the day and 22-28° C. during the night. Nutrients and water were added on a regular basis and supplemental lighting was provided with overhead metal halide 1000-Watt lamps as necessary. The plants were employed for testing when they reached the first or second true leaf stage.
(§2) A weighed amount, determined by the highest rate to be tested, of each test compound was placed in a 25 mL glass vial and was dissolved in 4 mL of a 97:3 v/v mixture of acetone and DMSO to obtain concentrated stock solutions. […] The concentrated stock solutions obtained were diluted with 20 mL of an aqueous mixture containing acetone, water, isopropyl alcohol, DMSO, Atplus 411F crop oil concentrate, and Triton® X-155 surfactant in a 48.5:39:10:1.5:1.0:0.02 v/v ratio to obtain spray solutions containing the highest application rates. Additional application rates were obtained by serial dilution of 12 mL of the high rate solution into a solution containing 2 mL of a 97:3 v/v mixture of acetone and DMSO and 10 mL of an aqueous mixture containing acetone, water, isopropyl alcohol, DMSO, Atplus 411F crop oil concentrate, and Triton X-155 surfactant in a 48.5:39:10:1.5:1.0:0.02 v/v ratio to obtain ½×, ¼×, ⅛× and 1/16× rates of the high rate. Compound requirements are based upon a 12 mL application volume at a rate of 187 liters per hectare (L/ha). Formulated compounds were applied to the plant material with an overhead Mandel track sprayer equipped with 8002E nozzles calibrated to deliver 187 L/ha over an application area of 0.503 square meters at a spray height of 18 inches (43 cm) above the average plant canopy height. Control plants were sprayed in the same manner with the solvent blank.
(§3) The treated plants and control plants were placed in a greenhouse as described above and watered by subirrigation to prevent wash-off of the test compounds. After 14 d, the condition of the test plants as compared with that of the untreated plants was determined visually and scored on a scale of 0 to 100 percent where 0 corresponds to no injury and 100 corresponds to complete kill.

[2] = test system: BRSNN: oilseed rape, canola (Brassica napus); test: Post-emergent herbicidal test, oilseed rape; settings: post-emergence, 336 h, 14 days after application, read-out: Visual Growth Reduction (%) 14 Days After Application BRSNN
Protocol: as §1, §2, §3

[3] = test system: CIRAR: Canada thistle (Cirsium arvense); test: Post-emergent herbicidal test, Canada thistle; settings: post-emergence, 336 h, 14 days after application, read-out: Visual Growth Reduction (%) 14 Days After Application CIRAR
Protocol: as §1, §2, §3

[4] = test system: EPHHL: wild poinsettia (Euphorbia heterophylla); test: Post-emergent herbicidal test, wild poinsettia; settings: post-emergence, 336 h, 14 days after application, read-out: Visual Growth Reduction (%) 14 Days After Application EPHHL
Protocol: as §1, §2, §3

[5] = test system: IPOHE: ivyleaf morningglory (Ipomoea hederacea); test: Post-emergent herbicidal test, ivyleaf morningglory; settings: post-emergence, 336 h, 14 days after application, read-out: Visual Growth Reduction (%) 14 Days After Application IPOHE
Protocol: as §1, §2, §3

[6] = test system: VIOTR: wild violet (Viola tricolor); test: Post-emergent herbicidal test, wild violet; settings: post-emergence, 336 h, 14 days after application, read-out: Visual Growth Reduction (%) 14 Days After Application VIOTR
Protocol: as §1, §2, §3

[7] = test system: CYPES: yellow nutsedge (Cyperus esculentus); test: Post-emergent herbicidal test, yellow nutsedge; settings: post-emergence, 336 h, 14 days after application, read-out: Visual Growth Reduction (%) 14 Days After Application CYPES
Protocol: as §1, §2, §3

[8] = test system: DIGSA: large crabgrass (Digitaria sanguinalis); test: Post-emergent herbicidal test, large crabgrass; settings: post-emergence, 336 h, 14 days after application, read-out: Visual Growth Reduction (%) 14 Days After Application DIGSA
Protocol: as §1, §2, §3

[9] = test system: ECHCG: barnyardgrass (Echinochloa crus-galli); test: Post-emergent herbicidal test, barnyardgrass; settings: post-emergence, 336 h, 14 days after application, read-out: Visual Growth Reduction (%) 14 Days After Application ECHCG
Protocol: as §1, §2, §3

[10] = test system: SETFA: giant foxtail (Setaria faberi); test: Post-emergent herbicidal test, giant foxtail; settings: post-emergence, 336 h, 14 days after application, read-out: Visual Growth Reduction (%) 14 Days After Application SETFA
Protocol: as §1, §2, §3

[11] = test system: SORVU: shattercane (Sorghum bicolor); test: Post-emergent herbicidal test, shattercane; settings: post-emergence, 336 h, 14 days after application, read-out: Visual Growth Reduction (%) 14 Days After Application SORVU
Protocol: as §1, §2, §3

## COC(=O)c1nc(-c2ccc(F)c3c2OCO3)c(F)c(N)c1Cl [Compound 15]
[1]; 17.5 g ai/ha
  pest or weed control at 17.5 g/ha: 70%
[1]; 35 g ai/ha
  pest or weed control at 35 g/ha: 85%
[1]; 70 g ai/ha
  pest or weed control at 70 g/ha: 90%
[1]; 140 g ai/ha
  pest or weed control at 140 g/ha: 100%
[2]; 17.5 g ai/ha
  pest or weed control at 17.5 g/ha: 20%
[2]; 35 g ai/ha
  pest or weed control at 35 g/ha: 40%
[2]; 70 g ai/ha
  pest or weed control at 70 g/ha: 95%
[2]; 140 g ai/ha
  pest or weed control at 140 g/ha: 100%
[3]; 17.5 g ai/ha
  pest or weed control at 17.5 g/ha: 80%
[3]; 35 g ai/ha
  pest or weed control at 35 g/ha: 85%
[3]; 70 g ai/ha
  pest or weed control at 70 g/ha: 90%
[3]; 140 g ai/ha
  pest or weed control at 140 g/ha: 95%
[4]; 17.5 g ai/ha
  pest or weed control at 17.5 g/ha: 0%
[4]; 35 g ai/ha
  pest or weed control at 35 g/ha: 0%
[4]; 70 g ai/ha
  pest or weed control at 70 g/ha: 0%
[4]; 140 g ai/ha
  pest or weed control at 140 g/ha: 0%
[5]; 17.5 g ai/ha
  pest or weed control at 17.5 g/ha: 0%
[5]; 35 g ai/ha
  pest or weed control at 35 g/ha: 0%
[5]; 70 g ai/ha
  pest or weed control at 70 g/ha: 0%
[5]; 140 g ai/ha
  pest or weed control at 140 g/ha: 0%
[6]; 17.5 g ai/ha
  pest or weed control at 17.5 g/ha: 30%
[6]; 35 g ai/ha
  pest or weed control at 35 g/ha: 60%
[6]; 70 g ai/ha
  pest or weed control at 70 g/ha: 70%
[6]; 140 g ai/ha
  pest or weed control at 140 g/ha: 80%
[7]; 17.5 g ai/ha
  pest or weed control at 17.5 g/ha: 0%
[7]; 35 g ai/ha
  pest or weed control at 35 g/ha: 0%
[7]; 70 g ai/ha
  pest or weed control at 70 g/ha: 0%
[7]; 140 g ai/ha
  pest or weed control at 140 g/ha: 0%
[8]; 17.5 g ai/ha
  pest or weed control at 17.5 g/ha: 0%
[8]; 35 g ai/ha
  pest or weed control at 35 g/ha: 0%
[8]; 70 g ai/ha
  pest or weed control at 70 g/ha: 0%
[8]; 140 g ai/ha
  pest or weed control at 140 g/ha: 0%
[9]; 17.5 g ai/ha
  pest or weed control at 17.5 g/ha: 0%
[9]; 35 g ai/ha
  pest or weed control at 35 g/ha: 0%
[9]; 70 g ai/ha
  pest or weed control at 70 g/ha: 0%
[9]; 140 g ai/ha
  pest or weed control at 140 g/ha: 0%
[10]; 17.5 g ai/ha
  pest or weed control at 17.5 g/ha: 0%
[10]; 35 g ai/ha
  pest or weed control at 35 g/ha: 0%
[10]; 70 g ai/ha
  pest or weed control at 70 g/ha: 0%
[10]; 140 g ai/ha
  pest or weed control at 140 g/ha: 20%
[11]; 17.5 g ai/ha
  pest or weed control at 17.5 g/ha: 0%
[11]; 35 g ai/ha
  pest or weed control at 35 g/ha: 0%
[11]; 70 g ai/ha
  pest or weed control at 70 g/ha: 0%
[11]; 140 g ai/ha
  pest or weed control at 140 g/ha: 20%
